Patent publication US6635648B2, “Combination therapy using sympathetic nervous system antagonists and endothelin antagonists” (Queen's University at Kingston, priority 2000, dated 2003)

Experiments:
[1] = NO-selectivity of depressor responses before and after maximal NOS blockade with L-NAME; assay type: in vivo, rat; settings: for Change in Depressor Response: after vs before 100 mg/kg L-NAME; for Δ MAP L-NAME 100 mg/kg (mmHg): depressor agent after maximal NOS blockade with 100 mg/kg L-NAME; for Δ MAP Control (mmHg): depressor agent before L-NAME
Experimental: (§1) Determination of MAP: Three days after surgery, MAP was recorded (PowerLab/8s DAS, ADInstruments, Milford, Mass.). […] An equilibration period of at least 1 hour was allowed prior to any experimentation to establish a steady baseline. […] Mean arterial pressure (MAP) and heart rate (HR) were calculated as an average over five minutes for steady state conditions and 10 seconds for transient drug responses.
Hypersensitivity to NO-mimetics following NOS blockade is shown to be the result of a specific interaction between ET and depressor agents that target the NO pathway. To confirm the specificity of this interaction, dose responses to a variety of depressor agents targeting both NO-dependent and NO-independent pathways were performed before and after maximal NOS blockade with 100 mg/kg L-NAME. One dose of each depressor agent that decreased MAP by approximately 10 mmHg was chosen for analysis. The agents compared were SNP ([…]; 30 s infusion), 8-bromo-cGMP (8-Br-cGMP; 3000 mg/kg/min; cumulative from 30, 100, 300, 1000, 3000 dose response, 2 min infusion, 3 min between doses), bradykinin (30 mg/kg/min; 30 s infusion), PGE1 ([…]; cumulative dose response, 20 min/dose) and INE (0.2 mg/kg/min; 30 s infusion).

[2] = Mean arterial pressure (MAP) in conscious catheterised rats after drug treatment; assay type: in vivo, rat; settings: for Δ MAP (from initial baseline; mmHg): Table 3, L-NAME 3 mg/kg in the triple combination; for MAP after terazosin treatment: terazosin 2 mg/kg i.v., SB209670 treated animals (label SB209670) vs animals without SB209670 (label terazosin)
Experimental: Animals: Male Sprague-Dawley rats (250-300 g) from Charles River Laboratories (St. Constant, Quebec) were individually housed under conditions of 12-hour light/dark cycle at a room temperature of 22-24° C. Purina® rodent chow and tap water were provided ad libitum. Rats were housed for at least one day prior to catheter implantation and allowed a minimum of 3 days to recover from the surgery before any experiments. […] Experiments were performed in accordance with standards established by the Canadian Council of Animal Care.
Surgery: The surgical technique was based on that described by Thompson et al. (Hypertension. 20(6):809-815, 1992). In brief, rats were anaesthetized with Hypnorm®/Nersed® (1:2:1 ratio of Hypnorm®:H2O:Versed® at a dose rate of 3 ml/kg i.p.). […] An additional catheter sat loosely in the abdominal cavity for intra-peritoneal administration of drugs. All catheters were tunneled subcutaneously, exteriorized at the nape of the neck and sutured into place. The catheters were filled with heparin saline (50 IU/ml) and sealed at the exposed end.
as §1
The NOS antagonist L-NAME was administered in increasing doses (1,3,10,30 mg/kg i.v.). MAP was measured after each dose when pressure reached steady state (10 min).

[3] = Vascular reactivity: depressor response to NO-mimetic sodium nitroprusside (SNP) infusion; assay type: in vivo, rat; settings: for Change in Vascular Response to SNP: Table 3; for depressor response to SNP: treatment alone at maximal blockade (L-NAME 30 mg/kg), SNP 1-30 μg/kg/min i.v.; for depressor response to SNP in the presence of L-NAME: treatment combined with L-NAME 3 and 30 mg/kg
Experimental: as §1
(§2) Data Analysis: Dose responses to N^ω-nitro-L-arginine-methyl ester (L-NAME, Sigma, Mo.) in terazosin- or prazosin-treated animals vs control were compared using unpaired, two-tailed t-test for each dose. […] In all cases a p value less than 0.05 was considered to be statistically significant.
This set of experiments examined whether alpha-adrenoceptor antagonism and/or complete removal of α-signaling could also alter vascular reactivity to exogenous NO. […] Reactivity was then determined following minimal and maximal NOS blockade by administration of a low dose followed by a high dose of L-NAME (3 and 30 mg/kg L-NAME i.v., respectively). […] In these animals additional dose responses to each NO-donor were performed after initial alpha-adrenoceptor antagonism and before L-NAME treatment. Further assessment of the impact of removal of α1-adrenoceptor signaling was made through ganglionic blockade with hexamethonium (30 mg/kg i.v.). Down-stream sympathetic signaling is effectively abolished by completely blocking the ganglia with hexamethonium.

[4] = Vascular reactivity: depressor response to NO-mimetic glyceryl trinitrate (GTN) infusion; assay type: in vivo, rat
Experimental: as §1, §2
NOS blockade hypertension also results in a hypersensitivity to NO-mimetics such as SNP and GTN. This set of experiments examined whether alpha-adrenoceptor antagonism and/or complete removal of α-signaling could also alter vascular reactivity to exogenous NO. Dose response curves to 30 second infusions of the NO-mimetics sodium nitroprusside (1-30 μg/kg/min SNP i.v.) or glyceryl trinitrate (25-1600 μg/kg/min GTN i.v.) were generated in control animals to determine normal vasodilatory reactivity to exogenous NO. Reactivity was then determined following minimal and maximal NOS blockade by administration of a low dose followed by a high dose of L-NAME (3 and 30 mg/kg L-NAME i.v., respectively). […] In these animals additional dose responses to each NO-donor were performed after initial alpha-adrenoceptor antagonism and before L-NAME treatment. Further assessment of the impact of removal of α1-adrenoceptor signaling was made through ganglionic blockade with hexamethonium (30 mg/kg i.v.). Down-stream sympathetic signaling is effectively abolished by completely blocking the ganglia with hexamethonium. After establishment of a control dose response to SNP, maximal ganglionic blockade was induced and MAP was allowed to reach a steady state. The vascular reactivity to SNP was reassessed after hexamethonium alone and following both a low then high dose of L-NAME (3 and 30 mg/kg L-NAME i.v., respectively).

[5] = Overshoot and rate of recovery of MAP following 30 second SNP depressor challenge; assay type: in vivo, rat; settings: for Overshoot (mmHg) of MAP relative to control response: following SNP (10 μg/kg/min) depressor challenge, maximal blockade, 3 mg/kg L-NAME in TRZ combinations; for Rate of Recovery (mmHg/s): following SNP (30 μg/kg/min) depressor challenge, 10 second interval after onset of recovery; for Overshoot: Change vs Control: following SNP (10 mg/kg/min) depressor challenge; for Rate of Recovery: Change vs Control: following SNP (30 mg/kg/min) depressor challenge
Experimental: as §1
In Examples 2, 3 and 4, we used a 30 second infusion of SNP to induce a transient depressor response (less than 1 minute) in order to assess mechanisms involved in homeostatic adjustment, in each case comparing treatment to the respective control response (FIG. 8, Table 3). […] In contrast, after α1-adrenoceptor antagonism the response to the depressor challenge was altered such that there was a marked overshoot of MAP above baseline during the recovery phase. In some instances MAP took in excess of five minutes to return to baseline following the overshoot. […] This response was unchanged by NOS antagonism (FIG. 8b) and RAS inhibition (FIG. 8c).
In addition, we characterized the rate of recovery of MAP as determined by the upward slope of the arterial blood pressure trace during a 10 second interval immediately after the onset of recovery (Table 4). […] In contrast, the combination of alpha-blockade and NOS antagonism doubled the magnitude of the recovery slope.

[6] = compared with the placebo group; cited from earlier work
[7] = treatment alone at maximal blockade (L-NAME 30 mg/kg), GTN 25-1600 μg/kg/min i.v.

| SMILES | Change in Depressor Response [1] | Δ MAP L-NAME 100 mg/kg (mmHg) [1] [mmHg] | Δ MAP Control (mmHg) [1] [mmHg] | Δ MAP (from initial baseline; mmHg) [2] [mmHg] | Change in Vascular Response to SNP [3] | depressor response to SNP [3] | Overshoot (mmHg) of MAP relative to control response [5] [mmHg] | Rate of Recovery (mmHg/s) [5] [mmHg/s] | Overshoot: Change vs Control [5] | Rate of Recovery: Change vs Control [5] | other results |
| --- | --- | --- | --- | --- | --- | --- | --- | --- | --- | --- | --- |
| Nc1nc2c(nc(Br)n2[C@@H]2O[C@@H]3COP(=O)(O)O[C@H]3[C@H]2O)c(=O)[nH]1 [8-Br-cGMP, 8-bromo-cyclic-GMP] | ↑↑ | −26.57 ± 6.76 | −0.67 ± 2.83 |  |  |  |  |  |  |  |  |
| C[N+](C)(C)CCCCCC[N+](C)(C)C [Hexamethonium, hexamethonium] |  |  |  | −18 ± 10.0 | ↑ | induced an almost identical pattern of hypersensitivity |  |  |  |  | depressor response to SNP in the presence of L-NAME [3]: further enhanced |
| CC(C)NCC(O)c1ccc(O)c(O)c1 (stereo not drawn) [Isopropyl-norepinephrine (INE), Isopropyl-norepinephrine] | ←→ | −10.52 ± 4.04 | −9.42 ± 7.38 |  |  |  |  |  |  |  |  |
| COC(=O)[C@@H](N)CCCNC(=N)N[N+](=O)[O-] [L-NAME, N^ω-nitro-L-arginine-methyl ester] |  |  |  | 36 ± 11.1 | ↑ | enhanced | −1.6 ± 3.68 | 1.2 ± 0.73 | ←→ | ←→ | vascular reactivity to GTN ([4]; moderate NOS blockade, 3 mg/kg L-NAME alone): did not produce a significant change; depressor response to GTN [4, 7]: enhanced |
| CCCCC[C@H](O)/C=C/[C@H]1[C@H](O)CC(=O)[C@@H]1CCCCCCC(=O)O [PGE1] | ←→ | −15.51 ± 9.74 | −15.21 ± 5.72 |  |  |  |  |  |  |  |  |
| CCCOc1ccc2c(c1)[C@@H](c1ccc(OC)cc1OCC(=O)O)[C@H](C(=O)O)[C@H]2c1ccc2c(c1)OCO2 [SB209670] |  |  |  |  |  |  | 0.5 ± 4.98 | 1.4 ± 1.00 | ←→ | ←→ | effect on MAP vs control ([2]; SB209670 alone): did not lower MAP significantly; MAP ([2]; SB209670 i.v. bolus then 100 μg/kg/min infusion, alone, control 98.29±6.43): 90.41±4.36 mmHg; MAP after terazosin treatment [2]: 51.83±4.02 mmHg; enhanced SNP response with terazosin combined with moderate NOS antagonism ([3]; terazosin 2 mg/kg + L-NAME 3 mg/kg + SB209670): prevented; dose response to SNP after terazosin treatment ([3]; terazosin 2 mg/kg i.v. in animals receiving SB209670): significantly blunted; overshoot of MAP in treatment groups demonstrating overshoot ([5]; co-administration with alpha-adrenoceptor antagonist with or without NOS antagonist): abolished |
| COc1cc2nc(N3CCN(C(=O)C4CCCO4)CC3)nc(N)c2cc1OC (stereo not drawn) [Terazosin, terazosin] |  |  |  | −28 ± 18.5 | ↑ | enhanced | 45 ± 5.19 | 1.2 ± 0.42 | ↑ | ←→ | depressor response to GTN ([4]; terazosin combined with moderate NOS blockade (3 mg/kg L-NAME)): significantly enhanced; depressor response to GTN [4, 7]: only statistically significant at the highest dose of GTN; decrease in MAP ([2]; losartan + enalaprilat 30 mg/kg i.p. 1:1 vs terazosin alone): 28.09±18.49; MAP after terazosin treatment [2]: 77.37±17.48 mmHg; depressor response to SNP in the presence of L-NAME [3]: enhanced relative to control |
| O=[N+]([O-])O[C@H]1CO[C@H]2[C@@H]1OC[C@H]2O[N+](=O)[O-] [isosorbide dinitrate] |  |  |  |  |  |  |  |  |  |  | mortality among patients with chronic congestive heart failure [6]: reduced significantly |
| CCCCc1nc(Cl)c(CO)n1Cc1ccc(-c2ccccc2-c2nn[nH]n2)cc1 [losartan] |  |  |  |  |  | failed to increase the sensitivity |  |  |  |  |  |
| COc1cc2nc(N3CCN(C(=O)c4ccco4)CC3)nc(N)c2cc1OC [prazosin] |  |  |  |  |  |  |  |  |  |  | mortality among patients with chronic congestive heart failure [6]: the same; lowering of MAP after alpha-adrenoceptor antagonist ([2]; prazosin 3 mg/kg i.v. or terazosin 2 mg/kg i.v., steady state, conscious rats): 36.35±13.96 mmHg |
